Laboratory results: patent EP2402020B1, “Pharmaceutical composition comprising extracts of Bupleurum krylovianum for use in the treatment of arthritis and rheumatoid arthritis” (Industrial Technology Research Institute, priority 2010, dated 2012)
Converted amounts (≈) assume the structure as drawn.

Legend:
[1] = system: IL-6; assay: TNBS enteritis mouse model: IL-6 in colon infusion; assay type: in vivo, BABL/c mice; settings: 0.6mg/kg fed + 1.75mg of TNBS into the colon; colon infusion after 48 hours; negative value = enhanced excretion
Description: (§1) The BABL/c mice were categorized into 4 groups. Each group had 6 […].

[2] = system: TNF-α; assay: TNBS enteritis mouse model: TNF-α in colon infusion; assay type: in vivo, BABL/c mice; settings: 0.6mg/kg fed + 1.75mg of TNBS into the colon; colon infusion after 48 hours; negative value = enhanced excretion
Description: as §1

[3] = system: carrageenan induced hindpaw edema; assay: Carrageenan induced hindpaw edema in a rat model (plethysmometer); assay type: in vivo, Long-Evan rats; settings: 3 mg/kg fed 1 hour before carrageenan (positive control)
Protocol: Long-Evan rats were fed with the extract (a) in Example 5 (i) in an amount of 250mg/kg, 500 mg/kg, 1000mg/kg, respectively. The positive control was fed with 3mg/kg of indomethacin (NSAID). The negative control was fed with 10ml/kg of 2% Tween 80 as a carrier After 1 hour, the rats were injected 0.1ml of 1% carrageenan on the left hindpaw. The volume of the rat's left hindpaw was measured by plethysmometer (Stoelting) at the 0, 1.5th, and 3rd hour after injection. The inhibition was calculated by the formula :
Inhibition (%)=(Nt-Nv)/Nv × 100
In the formula, Nt represents the left hindpaw volume of the rat fed with the ethanol extract; Nv represents the left hindpaw of the rat fed with the carrier.

[4] = system: TNF-α; assay: TNF-α excretion by LPS-stimulated, PMA-activated U937 cells (ELISA); assay type: cell-based, human; settings: activated U937, 30 minutes preincubation, LPS stimulation 4 hours, supernatant ELISA
Protocol: The cell line, U937 (human monocyte cell line), was incubated in RPMI medium containing 50 ng/ml PMA (phorbol 12-myristate 13-acetate) (Sigma) and 10% fetal bovine serum (Moor et. al., Roswell Park Memorial Institute) for 24 hours. The cell line was then moved to the RPMI medium without PMA for further 48 hours. The activated U937 was seeded into a 96-well plate in a concentration of 1.6×10^5 cell/well. The wells were added 12.5 µg/ml, 25 µg/ml, 50 µg/ml and 100 µg/ml of kaerophyllin and 1 µg/ml, 3 µg/ml, 10 µg/ml and 30 µg/ml of isokaerphyllin and 10 µl of buffer, respectively. Each well was adjusted to a final volume of 190 µl. The plate was reacted under 37°C for 30 minutes. Each well was added 10 µl of 20 µg/ml LPS to stimulate cells. After 4 hours under 37°C, the plate was centrifuged to collect the supernatants.
The amount of TNF-α in the supernatant was measured by ELISA (R&D System®) based on the control (DMSO). Meanwhile, the cell viability was measured by MTT assay (Sigma).

[5] = system: IL-6; assay: IL-6 excretion by LPS-stimulated, PMA-activated U937 cells (ELISA); assay type: cell-based, human; settings: activated U937, 30 minutes preincubation, LPS stimulation 16-18 hours, supernatant ELISA
Protocol: The cell line, U937, was cultured like Example 13. The activated U937 was /s then seeded in a 96-well plate in a concentration of 1.6×10^5 cell/well. The wells were added 6.3 µg/ml, […], 25 µg/ml and 50 µg/ml of kaerophyllin and 3.8 µg/ml, 7.5 µg/ml, 15 µg/ml and 30 µg/ml of isokaerphyllin and 10 µl of buffer, respectively. Each well was adjusted to a final volume of 190 µl. The plate was put under 37°C for 30 minutes. Each well was added 10µl of 20 µg/ml LPS to stimulate cells. After 16-18 hours under 37°C, the plate was centrifuged to collect the supernatants.
The amount of IL-6 in the supernatant was measured by ELISA (R&D System®) based on the control (DMSO). Meanwhile, the cell viability was measured by MTT assay (Sigma).

C[C@@H]1C[C@H]2[C@@H]3CCC4=CC(=O)C=C[C@]4(C)[C@@]3(F)[C@@H](O)C[C@]2(C)[C@@]1(O)C(=O)CO [DEX, dexamethasone]
Inhibition of IL-6 (%) [1]: -55% | Inhibition of TNF-α(%) [2]: 9%

COc1ccc2c(c1)c(CC(=O)O)c(C)n2C(=O)c1ccc(Cl)cc1 [indomethacin]
Inhibition at 0 hour (%) ([3]; left hindpaw volume at 0 hour): 0% | Inhibition at the 1.5th hour (%) ([3]; left hindpaw volume at 1.5th hour): 21% | Inhibition at the 3rd hour (%) ([3]; left hindpaw volume at 3rd hour): 52%

COc1ccc(/C=C2/C(=O)OC[C@@H]2Cc2ccc3c(c2)OCO3)cc1OC [kaerophyllin, trans-(3,4-dimethoxybenzylidene)-β-(3,4-methylenedioxylbenzyl)-γ-butyrolactone]
IC50 ([4]; Homo sapiens, U-937, read-out: IC50 value (inhibition of the excretion of TNF-α)): 44 ± 5 µg/mL (≈ 119 µM) | IC50 ([5]; Homo sapiens, U-937, read-out: IC50 value (inhibition of the excretion of IL-6)): 13 ± 2 µg/mL (≈ 35.3 µM)

cis-(3,4-dimethoxybenzylidene)-β-(3,4-methylenedioxylbenzyl)-γ-butyrolactone [isokaerophyllin]
IC50 value (inhibition of the excretion of TNF-α) [4]: 18 ± 4 µg/mL | IC50 value (inhibition of the excretion of IL-6) [5]: 24 ± 6 µg/mL
